Laboratory results published in patent US4377578A, “Piperazine derivatives” (priority 1981, dated 1983).

Experiments:
[1] = test system: histamine paw oedema in guinea pigs; experiment: Histamine paw oedema in guinea pigs; type: in vivo, guinea pig; settings: Table I-b, 2 hours before s.p. histamine 50 μg, oedema below 10 units at 10 minutes
Procedure: Guinea pigs, weighing between 400 and 500 g, are sensitized to ovalbumin by subplantar (s.p.) injection of 0.05 ml of antiserum in the left hind paw. The animals are then starved and orally treated, 24 hours after the sensitization, with saline (=control animals) or a particular dose of the compound under investigation. The histamine injection (at a dose of 50 μg) was given s.p. in the right hind paw 2 hours after the oral pretreatment with the compound.

[2] = test system: anaphylactic shock in guinea pigs sensitized to ovalbumin; experiment: Anaphylaxis in guinea pigs: protection against death (survival) after ovalbumin challenge; type: in vivo, guinea pig; settings: Table I-b; estimated ED50, oral, protection against death after i.v. 0.6 mg ovalbumin
Procedure: The anti-anaphylactic and antihistaminic effects of the subject compounds (I) and salts thereof are studied "in vivo" in guinea pigs.
Guinea pigs, weighing between 400 and 500 g, are sensitized to ovalbumin by subplantar (s.p.) injection of 0.05 ml of antiserum in the left hind paw. The animals are then starved and orally treated, 24 hours after the sensitization, with saline (=control animals) or a particular dose of the compound under investigation.
The histamine injection (at a dose of 50 μg) was given s.p. in the right hind paw 2 hours after the oral pretreatment with the compound. The diameters of both hind paws are first measured before the histamine injection is given and again 10 minutes thereafter. The animals are challenged intravenously with 0.6 mg of ovalbumin 30 minutes after the histamine injection. All control animals develop tyical primary anaphylactic shock symptoms (coughing, difficult breathing, convulsions) and 85% of these control animals die within 15 minutes after the ovalbumin injection. Protection against death is used as the criterion for possible drug effects and the estimated ED50 -value, i.e. the oral dose whereby the protection is observed in 50% of the guinea pigs, is listed in the tables below.

[3] = test system: histamine-induced spasms of guinea-pig ileum strips; experiment: Anti-histamine activity in vitro (guinea-pig ileum); type: cell-based; settings: Table I-b; histamine 0.5 mg/liter, 5 minutes incubation, significant inhibition (50%) of contraction
Procedure: The histamine-(0.5 mg/liter) induced spasms are recorded Kymographically with an isotonic lever giving a 5-fold magnification.

1-[3-{4-[(3-chlorophenyl)phenylmethyl]-1-piperazinyl}propyl]-1H-benzimidazole trihydrochloride.hydrate.hemi-2-propanolate [I-b: M=H, R1=H, (CH2)4, R6=3-Cl, R7=H]
Anaphylaxis in guinea pigs oral effective dose in mg/kg: Histamine oedema [1]: 1.25 mg/kg
Anaphylaxis in guinea pigs oral effective dose in mg/kg: Survival [2]: 1.25 mg/kg
Histamine in "vitro" (ileum) effective conc. [3]: 0.01 mg/L
